Measured values as given in patent publication US20090131354A1, “miR-126 REGULATED GENES AND PATHWAYS AS TARGETS FOR THERAPEUTIC INTERVENTION” (priority 2007, published 2009).

Columns and labels:
Type in all cases: cell-based, human
H1650 lung cancer cells = experiment: Alamar Blue proliferation assay, H1650
Description: (§1) The inventors assessed the therapeutic effect of hsa-miR-126 for lung cancer by using 11 individual lung cancer cell lines. To measure cellular proliferation of lung cancer cells, the following non-small cell lung cancer (NSCLC) cells were used: cells derived from lung adenocarcinoma (A549, H1299, H522, H838, Calu-3, HCC827, HCC2935), cells derived from lung squamous cell carcinoma (H520, H226), cells derived from lung bronchioalveolar carcinoma (H1650), and cells derived from lung large cell carcinoma (H460). Synthetic hsa-miR-126 (Pre-miR™-hsa-miR-126, Ambion cat. no. AM17100) or negative control (NC) miRNA (Pre-miR™ microRNA Precursor Molecule-Negative Control #2; Ambion cat. no. AM17111) was delivered via lipid-based transfection into A549, H1299, H522, H838, Calu-3, HCC827, HCC2935, H520, H1650, and H460 cells, and via electroporation into H226 cells.
Lipid-based reverse transfections were carried out in triplicate according to a published protocol (Ovcharenko et al., 2005) and the following parameters: Cells (5,000-12,000 per 96 well), 0.1-0.2 μl Lipofectamine™ 2000 (cat. no. 11668-019, Invitrogen Corp., Carlsbad, Calif., USA) in 20 μl OptiMEM (Invitrogen), 30 nM final concentration of miRNA in 100 μl. Electroporation of H226 cells was carried out using the BioRad Gene Pulser Xcell™ instrument (BioRad Laboratories Inc., Hercules, Calif., USA) with the following settings: 5×10^6 cells with 5 μg miRNA in 200 μl OptiMEM (1.6 μM miRNA), square wave pulse at 250 V for 5 ms. Electroporated H226 cells were seeded at 7,000 cells per 96-well in a total volume of 100 μl. All cells except for Calu-3 cells were harvested 72 hours post transfection or electroporation for assessment of cellular proliferation. Calu-3 cells were harvested 10 days post transfection. Proliferation assays were performed using Alamar Blue (Invitrogen) following the manufacturer's instructions. As a control for inhibition of cellular proliferation, siRNA against the motor protein kinesin 11, also known as Eg5, was used. […]

H460 lung cancer cells [1] = experiment: Alamar Blue proliferation assay, H460; settings: for % proliferation: relative to NC miRNA (100%)
Description: as §1
Lipid-based reverse transfections were carried out in triplicate according to a published protocol (Ovcharenko et al., 2005) and the following parameters: Cells (5,000-12,000 per 96 well), 0.1-0.2 μl Lipofectamine™ 2000 (cat. no. 11668-019, Invitrogen Corp., Carlsbad, Calif., USA) in 20 μl OptiMEM (Invitrogen), 30 nM final concentration of miRNA in 100 μl. Electroporation of H226 cells was carried out using the BioRad Gene Pulser Xcell™ instrument (BioRad Laboratories Inc., Hercules, Calif., USA) with the following settings: 5×10^6 cells with 5 μg miRNA in 200 μl OptiMEM (1.6 μM miRNA), square wave pulse at 250 V for 5 ms. Electroporated H226 cells were seeded at 7,000 cells per 96-well in a total volume of 100 μl. All cells except for Calu-3 cells were harvested 72 hours post transfection or electroporation for assessment of cellular proliferation. Calu-3 cells were harvested 10 days post transfection. Proliferation assays were performed using Alamar Blue (Invitrogen) following the manufacturer's instructions. As a control for inhibition of cellular proliferation, siRNA against the motor protein kinesin 11, also known as Eg5, was used. Eg5 is essential for cellular survival of most eukaryotic cells and a lack thereof leads to reduced cell proliferation and cell death (Weil et al., 2002). siEg5 was used in lipid-based transfection following the same experimental parameters that apply to miRNA. The inventors also used a DNA topoisomerase II inhibitor, etoposide, at a final concentration of 10 μM and 50 μM as an internal standard for the potency of miRNAs. Etoposide is an FDA-approved DNA topoisomerase II inhibitor in the treatment of lung cancer. […] Percent (%) proliferation values from the Alamar Blue assay were normalized to values from cells treated with negative control miRNA. […]

H460 lung cancer cells [2] = experiment: Pair-wise miRNA combinations, Alamar Blue proliferation; settings: for % proliferation: mock-transfected cells, 48 h
Description: miRNAs function in multiple pathways controlling multiple cellular processes. Cancer cells frequently show aberrations in several different pathways, which determine their oncogenic properties. […] The inventors assessed the efficacy of pair-wise miRNA combinations, administering hsa-miR-126 concurrently with either hsa-miR-34a, hsa-miR-124a, hsa-miR-147, hsa-let-7b, hsa-let-7c or hsa-let-7g (Pre-miR™ miRNA, Ambion cat. no. AM17100). H460 lung cancer cells were transiently reverse-transfected in triplicates with each miRNA at a final concentration of 300 pM, resulting in 600 pM of oligonucleotide. For negative controls, 600 pM of Pre-miR™ microRNA
Precursor Molecule-Negative Control #2 (Ambion cat. no. AM17111) were used. To correlate the effect of various combinations with the effect of the sole miRNA, each miRNA at 300 pM was also combined with 300 pM negative control miRNA. Reverse transfection was carried using the following parameters: 7,000 cells per 96 well, 0.15 μl Lipofectamine™ 2000 (Invitrogen) in 20 μl OptiMEM (Invitrogen), 100 μl total transfection volume. As an internal control for the potency of miRNA, etoposide was added at 10 μM and 50 μM to mock-transfected cells, 24 hours after transfection for the following 48 hours. Cells were harvested 72 hours after transfection and subjected to Alamar Blue assays (Invitrogen). Percent proliferation values from the Alamar Blue assay were normalized to those obtained from cells treated with 600 pM negative control miRNA. Data are expressed as % proliferation relative to negative control miRNA-treated cells (Table 8).
Additive activity of pair-wise combinations (e.g. hsa-miR-126 plus hsa-let-7b) is defined as an activity that is greater than the sole activity of each miRNA (e.g., the activity of hsa-miR-126 plus hsa-let-7b is greater than that observed for hsa-miR-126 plus NC and the activity of hsa-miR-126 plus hsa-let-7b is greater than that observed for hsa-let-7b plus NC). […]

With `COc1cc([C@@H]2c3cc4c(cc3[C@@H](O[C@@H]3O[C@@H]5CO[C@@H](C)O[C@H]5[C@H](O)[C@H]3O)[C@H]3COC(=O)[C@H]23)OCO4)cc(OC)c1O` [etoposide] the “% proliferation” value (H1650 lung cancer cells; H1650, 10 μM, relative to NC miRNA (100%)) was 90.98%, the “% proliferation” value (H1650 lung cancer cells; H1650, relative to NC miRNA (100%)) was 60.31% and the “% proliferation” value (H460 lung cancer cells [1]; H460, 10 μM) was 32.13%. For the same molecule, the “% proliferation” value (H460 lung cancer cells [1]; H460, 50 μM) was 27.82%, the “% proliferation” value (H460 lung cancer cells [2]; H460, 10 μM) was 20.19% and the “% proliferation” value (H460 lung cancer cells [2]; H460, 50 μM) was 14.94%.

With “hsa-miR-126 (UCGUACCGUGAGUAAUAAUGC; synthetic pre-miR form, further chemistry not given here) [Synthetic hsa-miR-126 (Pre-miR™-hsa-miR-126, Ambion cat. no. AM17100)]” the “% proliferation” value (H1650 lung cancer cells; H1650, 30 nM, 72 h, relative to NC miRNA (100%)) was 80.67%, the “reduction of proliferation (maximal inhibitory activity)” value (H460 lung cancer cells [1]; H460, 30 nM) was 71% and the “% proliferation” value (H460 lung cancer cells [1]; H460, 30 nM, 72 h) was 29.09%. The reduction of proliferation (H460 lung cancer cells [2]; H460, 300 pM) was 10.54%.
